According to patent publication US11149037B2, “Pyrazole MAGL inhibitors” (H. Lundbeck A/S, priority 2017, dated 2021):

Key:
Type in all cases: biochemical
[1] = biological target: FAAH (Homo sapiens (Human), UniProt O00519); assay: In vitro competitive activity-based protein profiling, human proteomes (prefrontal cortex or PC3 cell membrane fractions); details: human proteome; for inhibition at 1 µM: read-out: FAAH % inh. 1 μM (human)
Outline: (§1)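 Activity of MAGL and FAAH was quantified from fluorescent gel band intensities. Beforehand, inhibitors at several concentrations competed against subsequent probe labelling (FP-Rh, JW912 or HT-01) in species-matched proteomes, each step 30 min at 37° C.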

[2] = biological target: MAGL (Homo sapiens (Human), UniProt Q99685); assay: as above; details: human proteome; for inhibition at 1 µM: read-out: MAGL % inh. 1 μM (human)
Chain of MAGL (Homo sapiens (Human), UniProt Q99685) (Q99685 whole entry): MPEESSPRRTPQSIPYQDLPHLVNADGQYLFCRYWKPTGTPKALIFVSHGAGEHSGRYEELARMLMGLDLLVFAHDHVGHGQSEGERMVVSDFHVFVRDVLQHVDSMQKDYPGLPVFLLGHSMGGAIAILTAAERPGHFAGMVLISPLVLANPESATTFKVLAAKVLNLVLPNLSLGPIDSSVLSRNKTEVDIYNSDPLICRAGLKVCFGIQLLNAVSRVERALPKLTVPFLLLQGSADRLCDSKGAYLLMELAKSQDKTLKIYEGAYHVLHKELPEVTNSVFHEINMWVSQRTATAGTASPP
Outline: as §1

[3] = biological target: FAAH (Mus musculus (Mouse), UniProt O08914); assay: In vitro competitive activity-based protein profiling, mouse proteomes (brain membrane fraction or cell lysates); details: mouse proteome, read-out: FAAH % inh. 1 μM (mouse)
Chain of FAAH (Mus musculus (Mouse), UniProt O08914) (O08914 whole entry): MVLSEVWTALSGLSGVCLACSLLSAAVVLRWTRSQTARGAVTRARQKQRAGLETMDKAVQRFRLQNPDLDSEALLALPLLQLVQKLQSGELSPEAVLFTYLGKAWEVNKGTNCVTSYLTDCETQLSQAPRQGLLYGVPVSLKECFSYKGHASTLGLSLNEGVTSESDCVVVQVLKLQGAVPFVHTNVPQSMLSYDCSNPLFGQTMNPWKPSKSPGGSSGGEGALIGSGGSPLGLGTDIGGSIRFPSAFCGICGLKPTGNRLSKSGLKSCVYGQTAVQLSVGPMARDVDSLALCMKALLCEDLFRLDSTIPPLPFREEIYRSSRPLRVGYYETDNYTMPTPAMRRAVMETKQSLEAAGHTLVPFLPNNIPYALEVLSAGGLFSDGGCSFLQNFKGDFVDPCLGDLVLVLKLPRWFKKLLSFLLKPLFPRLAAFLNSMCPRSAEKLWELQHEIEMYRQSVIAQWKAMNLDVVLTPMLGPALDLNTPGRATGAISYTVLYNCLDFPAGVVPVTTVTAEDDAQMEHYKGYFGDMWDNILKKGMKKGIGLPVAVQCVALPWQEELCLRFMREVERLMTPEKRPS
Outline: as §1

[4] = biological target: MAGL (Mus musculus (Mouse), UniProt O35678); assay: as above; details: mouse proteome, read-out: MAGL % inh. 1 μM (mouse)
Chain of MAGL (Mus musculus (Mouse), UniProt O35678) (O35678 whole entry): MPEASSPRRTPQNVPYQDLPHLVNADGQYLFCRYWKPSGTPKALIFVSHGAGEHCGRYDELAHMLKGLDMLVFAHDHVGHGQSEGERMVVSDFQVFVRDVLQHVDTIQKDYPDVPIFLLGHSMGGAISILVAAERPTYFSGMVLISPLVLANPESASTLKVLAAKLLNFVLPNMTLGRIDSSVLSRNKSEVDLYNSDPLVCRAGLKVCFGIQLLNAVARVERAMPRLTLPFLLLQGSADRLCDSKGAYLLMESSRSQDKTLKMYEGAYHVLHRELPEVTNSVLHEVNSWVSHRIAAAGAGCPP
Outline: as §1

Chain of FAAH (Homo sapiens (Human), UniProt O00519) (O00519 whole entry): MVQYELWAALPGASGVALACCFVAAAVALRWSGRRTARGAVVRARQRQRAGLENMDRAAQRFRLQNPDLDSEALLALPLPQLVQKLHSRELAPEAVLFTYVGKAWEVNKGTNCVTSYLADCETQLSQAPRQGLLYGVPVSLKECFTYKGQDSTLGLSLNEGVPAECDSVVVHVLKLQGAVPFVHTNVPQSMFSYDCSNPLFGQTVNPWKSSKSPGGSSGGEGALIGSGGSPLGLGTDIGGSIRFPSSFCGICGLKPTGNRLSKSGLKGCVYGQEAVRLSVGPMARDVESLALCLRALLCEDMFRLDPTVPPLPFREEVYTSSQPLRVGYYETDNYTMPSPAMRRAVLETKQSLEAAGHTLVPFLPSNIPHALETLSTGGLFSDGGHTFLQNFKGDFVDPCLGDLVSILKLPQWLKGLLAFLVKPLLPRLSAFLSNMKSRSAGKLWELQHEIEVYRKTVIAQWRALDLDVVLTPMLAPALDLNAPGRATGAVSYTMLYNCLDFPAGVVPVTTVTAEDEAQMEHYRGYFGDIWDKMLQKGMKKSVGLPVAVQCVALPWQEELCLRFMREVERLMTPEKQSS

| inhibition at 1 µM [1] | IC50 [1] | inhibition at 1 µM [2] | IC50 [2] | inhibition at 1 µM [3] | inhibition at 1 µM [4] | inhibition at 10 µM ([2]; 10 μM, read-out: MAGL % inh. (human) @ 10 μM) | Structure (SMILES) |
| --- | --- | --- | --- | --- | --- | --- | --- |
| > 75% | 0.1 to 1 µM | > 75% | < 0.1 µM | > 75% | > 75% | – | CN(Cc1cc(Cl)ccc1C(F)(F)F)[C@H]1C[C@@H]2CN(C(=O)n3ccc(NS(C)(=O)=O)n3)C[C@@H]2C1 [Example 51, N-(1-((3aR,5r,6aS)-5-((5-Chloro-2-(trifluoromethyl)benzyl)(methyl)amino)octahydrocyclopenta[c]pyrrole-2-carbonyl)-1H-pyrazol-3-yl)methanesulfonamide] |
| 0 to 25% | – | 50 to 75% | – | 0 to 25% | 0 to 25% | – | CN(Cc1ccc(C(F)(F)F)cc1NCC(=O)O)C1(C)CCN(C(=O)n2ccc(NS(C)(=O)=O)n2)CC1 [Example 102, (2-((Methyl(4-methyl-1-(3-(methylsulfonamido)-1H-pyrazole-1-carbonyl)piperidin-4-yl)amino)methyl)-5-(trifluoromethyl)phenyl)glycine] |
| 0 to 25% | – | > 75% | – | 0 to 25% | > 75% | – | CS(=O)(=O)Nc1ccn(C(=O)N2CCN(Cc3nc4ccccc4s3)CC2)n1 [Example 56, N-(1-(4-(Benzo[d]thiazol-2-ylmethyl)piperazine-1-carbonyl)-1H-pyrazol-3-yl)methanesulfonamide] |
| 0 to 25% | – | 25 to 50% | – | 0 to 25% | 0 to 25% | – | CS(=O)(=O)Nc1ccn(C(=O)N2CC3CN(Cc4ccc(Cl)c(N5CC6COCC6C5)c4)CC3C2)n1 (centres unmarked) [Example 140, N-(1-(5-(4-chloro-3-(Tetrahydro-1H-furo[3,4-c]pyrrol-5(3H)-yl)benzyl)octahydropyrrolo[3,4-c]pyrrole-2-carbonyl)-1H-pyrazol-3-yl)methanesulfonamide] |
| 0 to 25% | – | > 75% | – | 0 to 25% | > 75% | – | CS(=O)(=O)Nc1ccn(C(=O)N2CCC(N(Cc3ccc(C(F)(F)F)cc3N3CCCC3)C3CC3)CC2)n1 [Example 35, N-(1-(4-(cyclopropyl(2-(pyrrolidin-1-yl)-4-(trifluoromethyl)benzyl)amino)piperidine-1-carbonyl)-1H-pyrazol-3-yl)methanesulfonamide] |
| 0 to 25% | – | – | – | 0 to 25% | 0 to 25% | > 75% | CS(=O)(=O)Nc1ccn(C(=O)N2CCC3(CCCN3Cc3cc4ccc(C(F)(F)F)cc4s3)CC2)n1 [Example 53, N-(1-(1-((6-(Trifluoromethyl)benzo[b]thiophen-2-yl)methyl)-1,8-diazaspiro[4.5]decane-8-carbonyl)-1H-pyrazol-3-yl)methanesulfonamide] |
| 25 to 50% | – | 50 to 75% | – | 0 to 25% | 0 to 25% | – | CS(=O)(=O)Nc1ccn(C(=O)N2CCC3(CCN(Cc4ccc(N5CC6COCC6C5)c(Cl)c4)C3)CC2)n1 (centres unmarked) [Example 160, N-(1-(2-(3-Chloro-4-(tetrahydro-1H-furo[3,4-c]pyrrol-5(3H)-yl)benzyl)-2,8-diazaspiro[4.5]decane-8-carbonyl)-1H-pyrazol-3-yl)methanesulfonamide] |
| 0 to 25% | – | > 75% | – | 0 to 25% | > 75% | – | CC(=O)Nc1ccn(C(=O)N2CCC3(CCCN3C(=O)c3ccc(C#N)c(C)c3)CC2)n1 [Example 85, N-(1-(1-(4-Cyano-3-methylbenzoyl)-1,8-diazaspiro[4.5]decane-8-carbonyl)-1H-pyrazol-3-yl)acetamide] |
| 0 to 25% | – | > 75% | – | 0 to 25% | > 75% | – | CC1CN(C(=O)n2ccc(NS(C)(=O)=O)n2)CCN1Cc1ccc(C(F)(F)F)cc1N1CCCC1 (centres unmarked) [Example 88, N-(1-(3-Methyl-4-(2-(pyrrolidin-1-yl)-4-(trifluoromethyl)benzyl)piperazine-1-carbonyl)-1H-pyrazol-3-yl)methanesulfonamide] |
